The text below walks through data of patent US20100099670A1, “Benzoquinazoline derivatives” (priority 2007, published 2010).

This assay concerns the target T1, human PcaR (Homo sapiens, UniProt P41180).
T1 construct: expressed in transfected cells; host or cells: CCL39 fibroblasts (hamster lung fibroblast line), stably transfected
T1 sequence (P41180 20-1078): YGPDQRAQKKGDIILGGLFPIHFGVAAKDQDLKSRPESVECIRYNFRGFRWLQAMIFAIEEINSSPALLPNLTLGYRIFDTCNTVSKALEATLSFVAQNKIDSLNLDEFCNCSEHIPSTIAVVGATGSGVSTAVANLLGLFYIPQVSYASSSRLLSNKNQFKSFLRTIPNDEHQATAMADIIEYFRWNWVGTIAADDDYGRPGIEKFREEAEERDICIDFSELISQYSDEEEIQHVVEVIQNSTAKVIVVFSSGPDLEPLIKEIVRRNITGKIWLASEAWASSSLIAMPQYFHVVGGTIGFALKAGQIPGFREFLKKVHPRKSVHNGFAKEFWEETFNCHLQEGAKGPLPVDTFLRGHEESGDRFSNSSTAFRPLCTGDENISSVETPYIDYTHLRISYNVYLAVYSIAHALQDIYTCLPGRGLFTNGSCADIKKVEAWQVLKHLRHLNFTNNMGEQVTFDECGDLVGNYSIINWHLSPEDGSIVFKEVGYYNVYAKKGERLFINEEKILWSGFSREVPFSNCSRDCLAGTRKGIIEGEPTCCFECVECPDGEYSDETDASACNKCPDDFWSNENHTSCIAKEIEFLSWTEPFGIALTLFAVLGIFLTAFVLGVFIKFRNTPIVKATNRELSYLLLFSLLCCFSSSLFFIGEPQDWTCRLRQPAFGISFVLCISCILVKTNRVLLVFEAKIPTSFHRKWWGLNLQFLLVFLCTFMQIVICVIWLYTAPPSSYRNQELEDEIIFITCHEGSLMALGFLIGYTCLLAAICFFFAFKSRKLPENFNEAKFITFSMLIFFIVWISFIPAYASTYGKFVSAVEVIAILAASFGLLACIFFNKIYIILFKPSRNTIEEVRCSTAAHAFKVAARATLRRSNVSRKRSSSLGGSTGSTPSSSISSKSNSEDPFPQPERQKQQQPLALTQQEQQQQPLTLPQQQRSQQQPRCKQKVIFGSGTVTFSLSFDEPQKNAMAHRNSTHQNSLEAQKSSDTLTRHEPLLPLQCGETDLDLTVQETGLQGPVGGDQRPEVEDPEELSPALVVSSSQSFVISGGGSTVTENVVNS
Kind of assay: Inhibition of intracellular calcium transients stimulated by extracellular calcium (assay for intracellular free calcium). Type of assay: cell-based. To be noted: CCL39 fibroblasts stably transfected with human PcaR; Fluo-3 AM; stimulated with calcium 2.5 mM final; read-out: IC50 (nm) (range in which compound fall). Here is the method: Inhibition of Intracellular Calcium Transients Stimulated by Extracellular Calcium
In the test system, which is described in detail below, the following ranges of IC50 values are found:
Assay for Intracellular Free Calcium:
A method to determine antagonism at the PcaR consists in measuring the inhibition of intracellular calcium transients stimulated by extracellular calcium.
CCL39 fibroblasts stably transfected with human PcaR are seeded at 40,000 cells/well into 96-well Viewplates and incubated for 24 hours. Medium is then removed and replaced with fresh medium containing 2 μM Fluo-3 AM (Molecular Probes, Leiden, The Netherlands), In routine experiments, cells are incubated at 37° C., 5% CO2 for 1 h. Afterwards, plates are washed twice with mHBS and wells are refilled with 100 μl mHBS containing the test compounds. Incubation is continued at room temperature for 15 minutes. To record changes of intracellular free calcium, plates are transferred to fluorescence-imaging plate reader (Molecular Devices, Sunnyvale, Calif., USA). A baseline consisting in 5 measurements of 0.4 seconds each (laser excitation 488 nm) is recorded. Cells are then stimulated with calcium (2.5 mM final), and fluorescence changes recorded over a period of 3 minutes.
(In general: Calcium flux is commonly read through the fluorescence of an indicator in the cells.)
Usually IC50 stands for the concentration that inhibits the measured activity by half. Regarding `C#CCOc1ccc2nc(C(=O)c3nc4ccc(OC)cc4s3)nc(-c3ccc(C(C)C)cc3)c2c1` [Example 11, [4-(4-Isopropyl-phenyl)-6-propargyloxy-quinazolin-2-yl]-(6-methoxy-benzo-thiazol-2-yl)-methanone], the IC50 fell in the range of 5 to 10 nM. The value for `C#CCOc1ccc2nc(C(=O)c3ccc4c(c3)C(C)(C)CCC4(C)C)nc(-c3ccc(C(C)C)cc3)c2c1` [Example 9, [4-(4-Isopropyl-phenyl)-6-propargyloxy-quinazolin-2-yl]-(5,5,8,8-tetramethyl-5,6,7,8-tetrahydro-naphthalen-2-yl)-methanone] was 1 to 5 nM; that for `C#CCOc1ccc2nc(C(=O)c3ccc4occc4c3)nc(-c3ccc(C(C)C)cc3)c2c1` [Example 8, Benzofuran-5-yl-[4-(4-isopropyl-phenyl)-6-propargyloxy-quinazolin-2-yl]-methanone] was 0.2 to 0.5 nM. On to `C#CCOc1ccc2nc(C(=O)c3ccc4c(c3)OCCN4C)nc(-c3ccc(C(C)C)cc3)c2c1` [Example 7, [4-(4-Isopropyl-phenyl)-6-propargyloxy-quinazolin-2-yl]-(4-methyl-3,4-dihydro-2H-benzo[1,4]oxazin-7-yl)-methanone], for which the IC50 is 0.2 to 0.5 nM.

In the case of `C#CCOc1ccc2nc(C(=O)c3ccc4c(c3)OCC4)nc(-c3ccc(C(C)C)cc3)c2c1` [Example 6, (2,3-Dihydro-benzofuran-6-yl)-[4-(4-isopropyl-phenyl)-6-propargyloxy-quinazolin-2-yl]-methanone], the half-inhibitory concentration (IC50) lay within 0.2 to 0.5 nM. The value for `C#CCOc1ccc2nc(C(=O)c3ccc4c(c3)-c3ccccc3C4=O)nc(-c3ccc(C(C)C)cc3)c2c1` [Example 12, 3-[4-(4-Isopropyl-phenyl)-6-propargyloxy-quinazolin-2-carbonyl]-fluoren-9-one] was 0.2 to 0.5 nM; that for `C#CCOc1ccc2nc(C(=O)c3ccc4c(c3)OC=CO4)nc(-c3ccc(C(C)C)cc3)c2c1` [Example 4, Benzo[1,4]dioxin-6-yl-[4-(4-isopropyl-phenyl)-6-propargyloxy-quinazolin-2-yl]-methanone] was 0.5 to 1 nM. The value for `C#CCOc1ccc2nc(C(=O)c3ccc4c(c3)OCO4)nc(-c3ccc(C(C)C)cc3)c2c1` [Example 2, Benzo[1,3]dioxol-5-yl-[4-(4-isopropyl-phenyl)-6-propargyloxy-quinazolin-2-yl]-methanone] was 0.2 to 0.5 nM; that for `C#CCOc1ccc2nc(C(=O)c3ccc4c(c3)CCC4)nc(-c3ccc(C(C)C)cc3)c2c1` [Example 5, Indan-5-yl-[4-(4-isopropyl-phenyl)-6-propargyloxy-quinazolin-2-yl]-methanone] was 0.5 to 1 nM; that for `C#CCOc1ccc2nc(C(=O)c3ccc4c(c3)OCCO4)nc(-c3ccc(C(C)C)cc3)c2c1` [Example 1, (2,3-Dihydro-benzo[1,4]dioxin-6-yl)-[4-(4-isopropyl-phenyl)-6-propargyloxy-quinazolin-2-yl]-methanone] was 0.5 to 1 nM. Turning to `C#CCOc1ccc2nc(C(=O)c3ccc4c(c3)CCO4)nc(-c3ccc(C(C)C)cc3)c2c1` [Example 3, (2,3-Dihydro-benzofuran-5-yl)-[4-(4-isopropyl-phenyl)-6-propargyloxy-quinazolin-2-yl]-methanone], the 50% inhibitory concentration (IC50) lay in the range of 0.2 to 0.5 nM. For `C#CCOc1ccc2nc(C(=O)c3ccc4c(c3)N(C)CCO4)nc(-c3ccc(C(C)C)cc3)c2c1` [Example 10, [4-(4-Isopropyl-phenyl)-6-propargyloxy-quinazolin-2-yl]-(4-methyl-3,4-dihydro-2H-benzo[1,4]oxazin-6-yl)-methanone], the IC50 lay within 1 to 5 nM.
